Assay results reported in patent US11479559B2, “Urea-substituted aromatic ring-linked dioxinoquinoline compounds, preparation method and uses thereof” (BEIJING SCITECH-MQ PHARMACEUTICALS LIMITED, priority 2018, dated 2022).
Where two headings read alike, the source gives them in different places.

Assays:
[1] = molecular target: RET tyrosine kinase (Homo sapiens (Human), UniProt P07949); experiment: Assay of small molecular compounds for inhibiting the activity of RET kinase (LANCE TR-FRET)
[2] = molecular target: VEGFR2 tyrosine kinase (Homo sapiens (Human), UniProt P35968); experiment: Assay of small molecular compounds for inhibiting the activity of VEGFR-2 kinase (LANCE TR-FRET)
Chain of VEGFR2 tyrosine kinase (P35968 20-1356): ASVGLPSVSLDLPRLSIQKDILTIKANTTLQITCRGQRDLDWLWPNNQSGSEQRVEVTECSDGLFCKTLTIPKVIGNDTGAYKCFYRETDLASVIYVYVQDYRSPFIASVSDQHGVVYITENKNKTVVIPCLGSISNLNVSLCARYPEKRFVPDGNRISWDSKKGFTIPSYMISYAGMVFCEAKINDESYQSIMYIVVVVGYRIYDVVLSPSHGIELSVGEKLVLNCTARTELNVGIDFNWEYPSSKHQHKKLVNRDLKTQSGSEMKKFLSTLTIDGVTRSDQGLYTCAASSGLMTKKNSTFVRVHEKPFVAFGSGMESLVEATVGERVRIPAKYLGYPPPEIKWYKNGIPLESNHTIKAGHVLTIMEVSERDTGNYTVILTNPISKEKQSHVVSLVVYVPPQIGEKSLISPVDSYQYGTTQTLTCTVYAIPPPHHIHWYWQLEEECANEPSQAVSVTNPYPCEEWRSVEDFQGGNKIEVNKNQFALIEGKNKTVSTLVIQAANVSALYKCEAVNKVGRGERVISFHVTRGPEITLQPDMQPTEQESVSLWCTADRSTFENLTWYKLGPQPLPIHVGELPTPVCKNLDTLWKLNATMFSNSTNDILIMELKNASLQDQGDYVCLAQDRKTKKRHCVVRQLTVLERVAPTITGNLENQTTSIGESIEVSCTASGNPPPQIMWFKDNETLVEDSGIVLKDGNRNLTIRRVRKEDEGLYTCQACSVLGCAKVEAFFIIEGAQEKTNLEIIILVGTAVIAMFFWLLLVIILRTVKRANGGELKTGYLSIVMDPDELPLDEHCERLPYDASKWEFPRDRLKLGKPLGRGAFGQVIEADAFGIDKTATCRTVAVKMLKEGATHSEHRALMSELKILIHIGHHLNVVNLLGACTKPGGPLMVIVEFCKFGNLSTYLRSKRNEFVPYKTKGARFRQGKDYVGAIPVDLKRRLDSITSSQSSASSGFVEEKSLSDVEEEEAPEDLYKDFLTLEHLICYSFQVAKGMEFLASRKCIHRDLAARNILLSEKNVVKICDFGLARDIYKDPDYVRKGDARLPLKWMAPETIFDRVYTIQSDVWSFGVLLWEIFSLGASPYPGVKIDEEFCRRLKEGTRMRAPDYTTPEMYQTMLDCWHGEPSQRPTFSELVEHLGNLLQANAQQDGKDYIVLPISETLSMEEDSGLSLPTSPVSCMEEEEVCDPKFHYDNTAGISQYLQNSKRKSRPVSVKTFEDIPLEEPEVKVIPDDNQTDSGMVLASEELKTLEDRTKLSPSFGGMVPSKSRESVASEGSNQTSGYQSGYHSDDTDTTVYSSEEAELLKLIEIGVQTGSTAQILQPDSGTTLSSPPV
Protocol: The assay is based on the LANCE TR-FRET technology of Perkin Elmer Inc., and the assay method is as follows:
2.5 μL of the gradient-diluted compounds were taken with a transfer pipette to a 384-well plate.
Addition of enzyme: 5 μL of 2× VEGFR2 kinase solution (concentration was 0.5 nM) was taken with a transfer pipette to the corresponding reaction well of the 384-well plate, mixed well and pre-reacted at room temperature for 30 minutes.
2.5 μL 4× Ultra ULight™-JAK-1 (Tyr1023) Peptide (concentration was 200 nM)/ATP (concentration was 40 μMM) mixture was taken with a transfer pipette to the corresponding reaction well of the 384-well plate.
Negative control: 2.5 μL/well 4× substrate/ATP mixture and 7.5 μL 1× Kinase Assay Buffer were added to the wells of the 384-well plate.
The final concentration of DMSO in the reaction system was 4%.
The mixture was mixed well and then centrifuged and reacted at room temperature in dark for 60 min.
The 384-well plate was placed into the Envision plate reader and the signal was detected using the appropriate program.

Chain of RET tyrosine kinase (P07949 29-1114): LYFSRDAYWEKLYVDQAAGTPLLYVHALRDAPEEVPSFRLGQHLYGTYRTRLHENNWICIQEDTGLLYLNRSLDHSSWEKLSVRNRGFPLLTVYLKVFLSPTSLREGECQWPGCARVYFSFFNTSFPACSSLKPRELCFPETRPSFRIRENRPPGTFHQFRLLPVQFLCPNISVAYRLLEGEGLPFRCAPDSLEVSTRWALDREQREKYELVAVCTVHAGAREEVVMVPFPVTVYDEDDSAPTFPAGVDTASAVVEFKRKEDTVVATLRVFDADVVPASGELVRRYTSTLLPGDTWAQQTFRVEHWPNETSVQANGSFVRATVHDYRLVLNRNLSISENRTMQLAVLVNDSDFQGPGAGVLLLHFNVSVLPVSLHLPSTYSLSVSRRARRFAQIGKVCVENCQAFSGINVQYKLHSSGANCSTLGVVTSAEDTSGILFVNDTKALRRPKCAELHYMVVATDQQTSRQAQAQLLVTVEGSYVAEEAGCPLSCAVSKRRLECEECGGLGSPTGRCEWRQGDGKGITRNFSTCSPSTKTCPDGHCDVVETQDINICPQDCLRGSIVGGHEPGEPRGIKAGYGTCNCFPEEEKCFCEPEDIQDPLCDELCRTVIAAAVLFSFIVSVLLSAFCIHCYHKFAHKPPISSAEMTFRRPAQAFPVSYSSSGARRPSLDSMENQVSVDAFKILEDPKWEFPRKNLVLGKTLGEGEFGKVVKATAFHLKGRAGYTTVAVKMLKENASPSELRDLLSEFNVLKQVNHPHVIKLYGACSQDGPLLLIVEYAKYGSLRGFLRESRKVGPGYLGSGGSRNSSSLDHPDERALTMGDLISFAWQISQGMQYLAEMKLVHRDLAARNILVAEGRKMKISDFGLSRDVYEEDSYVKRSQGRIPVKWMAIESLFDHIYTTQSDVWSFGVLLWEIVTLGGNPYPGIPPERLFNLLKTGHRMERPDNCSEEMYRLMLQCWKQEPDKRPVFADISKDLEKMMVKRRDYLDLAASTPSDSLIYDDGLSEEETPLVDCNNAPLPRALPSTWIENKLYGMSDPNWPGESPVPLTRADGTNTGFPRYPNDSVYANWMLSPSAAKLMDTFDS

Compound	IC50 ([1]; read-out: RET IC50) [nM]	IC50 ([2]; read-out: VEGFR-2 IC50) [nM]	IC50 [1] [nM]	IC50 [2] [nM]
CC1(O)CCN(CCCOc2cc3nccc(Oc4ccc(NC(=O)NC5CC5)c(Cl)c4)c3c3c2OCCO3)CC1 [Example 60, 1-(2-chloro-4-((5-(3-(4-hydroxy-4-methylpiperidin-1-yl)propoxy)-2,3-dihydro-[1,4]dioxino[2,3-f]quinolin-10-yl)oxy)phenyl)-3-cyclopropylurea]	< 50	< 50		
COc1cc2nccc(Oc3ccc(NC(=O)Nc4ccc(Cl)c(C(F)(F)F)c4)cc3F)c2c2c1OCCO2 [Example 5, 1-(4-chloro-3-(trifluoromethyl)phenyl)-3-(3-fluoro-4-((5-methoxy-2,3-dihydro-[1,4]dioxino[2,3-f]quinolin-10-yl)oxy)phenyl)urea]	< 50	50 to 500		
CCCNC(=O)Nc1ccc(Oc2ccnc3cc(OC)c4c(c23)OCCO4)cc1Cl [Example 81, 1-(2-chloro-4-((5-methoxy-2,3-dihydro-[1,4]dioxino[2,3-f]quinolin-10-yl)oxy)phenyl)-3-propylurea]	< 50	< 50		
O=C(Nc1ccc(Oc2ccnc3cc(OCCCN4CCOCC4)c4c(c23)OCCO4)cc1)Nc1ccc(F)cc1F [Example 78, 1-(2,4-difluorophenyl)-3-(4-((5-(3-morpholinopropoxy)-2,3-dihydro-[1,4]dioxino[2,3-f]quinolin-10-yl)oxy)phenyl)urea]	< 50	< 50		
COCCOc1cc2nccc(Oc3ccc(NC(=O)NC4CC4)c(Cl)c3)c2c2c1OCCO2 [Example 49, 1-(2-chloro-4-((5-(2-methoxyethoxy)-2,3-dihydro-[1,4]dioxino[2,3-f]quinolin-10-yl)oxy)phenyl)-3-cyclopropylurea]	< 50	< 50		
CNC(=O)Nc1ccc(Oc2ccnc3cc(OCCCN4CCOCC4)c4c(c23)OCCO4)cc1Cl [Example 85, 1-(2-chloro-4-((5-(3-morpholinopropoxy)-2,3-dihydro-[1,4]dioxino[2,3-f]quinolin-10-yl)oxy)phenyl)-3-methylurea]			< 50	< 50
N#CCCCOc1cc2nccc(Oc3ccc(NC(=O)Nc4ccc(Cl)c(C(F)(F)F)c4)cc3)c2c2c1OCCO2 [Example 94, 1-(4-chloro-3-(trifluoromethyl)phenyl)-3-(4-((5-(3-cyanopropoxy)-2,3-dihydro-[1,4]dioxino[2,3-f]quinolin-10-yl)oxy)phenyl)urea]	< 50			50 to 500
CN(C)CCCCCCOc1cc2nccc(Oc3ccc(NC(=O)Nc4ccc(Cl)c(C(F)(F)F)c4)cc3)c2c2c1OCCO2 [Example 30, 1-(4-chloro-3-(trifluoromethyl)phenyl)-3-(4-((5-((6-(dimethylamino)hexyl)oxy)-2,3-dihydro-[1,4]dioxino[2,3-f]quinolin-10-yl)oxy)phenyl)urea]	< 50			50 to 500
COCCN(C)CCCOc1cc2nccc(Oc3ccc(NC(=O)Nc4ccc(Cl)c(C(F)(F)F)c4)cc3)c2c2c1OCCO2 [Example 27, 1-(4-chloro-3-(trifluoromethyl)phenyl)-3-(4-((5-(3-((2-methoxyethyl)(methyl)amino)propoxy)-2,3-dihydro-[1,4]dioxino[2,3-f]quinolin-10-yl)oxy)phenyl)urea]	< 50			50 to 500
O=C(Nc1ccc(Oc2ccnc3cc(OCCCN4CCCCC4)c4c(c23)OCCO4)cc1Cl)NC1CC1 [Example 54, 1-(2-chloro-4-((5-(3-(piperidin-1-yl)propoxy)-2,3-dihydro-[1,4]dioxino[2,3-f]quinolin-10-yl)oxy)phenyl)-3-cyclopropylurea]	< 50	< 50		
O=C(Nc1ccc(F)cc1)Nc1ccc(Oc2ccnc3cc(OCCCN4CCOCC4)c4c(c23)OCCO4)cc1 [Example 77, 1-(4-fluorophenyl)-3-(4-((5-(3-morpholinopropoxy)-2,3-dihydro-[1,4]dioxino[2,3-f]quinolin-10-yl)oxy)phenyl)urea]	< 50	< 50		
